Experimental data: PubChem BioAssay AID256 (DTP/NCI, 2004)
Inconclusive results and toxic doses are left out. Rule for the calls: active = survival T/C of 150% or more; inactive = T/C below 125% in these data.

System: CD2F1 mice, L1210 leukemia ip, survival T/C
Assay: NCI In Vivo Anticancer Drug Screen. Data for tumor model L1210 Leukemia (intraperitoneal) in CD2F1 (CDF1) mice
Conditions: endpoint: mean survival time, higher = longer survival
Outline: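 Transplantable tumor in mice; compound-treated vs vehicle-treated groups. Read-out = treated/control ratio of the measured endpoint.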

[1] = dose: 50.0 mg/kg/injection, schedule: Q01DX009 (ip), vehicle: saline with Tween-80
[2] = dose: 100.0 mg/kg/injection, schedule: Q01DX009 (ip), vehicle: saline with Tween-80
[3] = dose: 200.0 mg/kg/injection, schedule: Q01DX009 (ip), vehicle: saline with Tween-80
[4] = dose: 400.0 mg/kg/injection, schedule: Q01DX009 (ip), vehicle: saline with Tween-80

Measured: T/C

O=C(NC(=S)N1CCCC1)c1ccccc1
inactive: [1] 101 % of control | [2] 103 % of control | [3] 106 % of control

CSc1ccc(NC=O)cc1
inactive: dose: 75.0 mg/kg/injection, schedule: Q01DX001 (ip), vehicle: saline 98 % of control | dose: 150.0 mg/kg/injection, schedule: Q01DX001 (ip), vehicle: saline 100 % of control | dose: 300.0 mg/kg/injection, schedule: Q01DX001 (ip), vehicle: saline 100 % of control

O=c1[nH]c2cc(Cl)ccc2c2ccc(Cl)cc12
inactive: dose: 50.0 mg/kg/injection, schedule: Q01DX001 (ip), vehicle: carboxymethylcellulose (CMC) 98 % of control | dose: 100.0 mg/kg/injection, schedule: Q01DX001 (ip), vehicle: carboxymethylcellulose (CMC) 98 % of control | dose: 200.0 mg/kg/injection, schedule: Q01DX001 (ip), vehicle: carboxymethylcellulose (CMC) 104 % of control | dose: 400.0 mg/kg/injection, schedule: Q01DX001 (ip), vehicle: carboxymethylcellulose (CMC) 95 % of control

Cc1ccc(OP(=O)(c2ccccc2)c2ccccc2)cc1
inactive: dose: 100.0 mg/kg/injection, schedule: Q04DX003 (ip), vehicle: saline with Tween-80 98 % of control | dose: 200.0 mg/kg/injection, schedule: Q04DX003 (ip), vehicle: saline with Tween-80 100 % of control | dose: 400.0 mg/kg/injection, schedule: Q04DX003 (ip), vehicle: saline with Tween-80 100 % of control

CCCCNC(C)(C)C(SSSC(c1ccco1)C(C)(C)NCCCC)c1ccco1 (stereo not given)
inactive: dose: 12.5 mg/kg/injection, schedule: Q01DX009 (ip), vehicle: saline with Tween-80 102 % of control | dose: 25.0 mg/kg/injection, schedule: Q01DX009 (ip), vehicle: saline with Tween-80 96 % of control | [1] 98 % of control

O=[N+]([O-])c1cc(S(=O)(=O)c2ccc(N3CCCCC3)c([N+](=O)[O-])c2)ccc1N1CCCCC1
inactive: [2] 91 % of control | [3] 97 % of control | [4] 95 % of control

O=C1c2ccccc2C(=O)N1CO
inactive: dose: 100.0 mg/kg/injection, schedule: Q01DX001 (ip), vehicle: saline with Tween-80 108 % of control | [2] 101 % of control | dose: 200.0 mg/kg/injection, schedule: Q01DX001 (ip), vehicle: saline with Tween-80 106 % of control | [3] 97 % of control | dose: 400.0 mg/kg/injection, schedule: Q01DX001 (ip), vehicle: saline with Tween-80 104 % of control | [4] 101 % of control
